In patent US12281079B2, “Quinoline derivatives, processes for their preparation and uses thereof for the treatment of cancer” (Lead Discovery Center GmbH, priority 2019, dated 2025) one finds IC50 data, which are given here for twelve compounds.

Structures can show the parent of a compound that is named as a salt.

The target of test [1] is mitochondrial RNA polymerase (POLRMT) (Mus musculus, UniProt Q8BKF1). The test can be described thus: Homogeneous TR-FRET assay for mitochondrial transcription activity. The test is classed as biochemical. The conditions noted are these: homogeneous TR-FRET assay according to Example 4. In short, it runs like this: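 Read-out is TR-FRET (ex 340, em 665 nm) from two adjacent labelled DNA probes annealing to the 407 bp transcript after EDTA/700 mM NaCl stop. Reaction: murine POLRMT, TFAM, TFB2M and LSP plasmid template, compound 10 μM or serial dilution, 10 min rt preincubation, 500 μM each nucleotide, 2 h rt.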
In general terms: TR-FRET usually uses a lanthanide donor and a delayed reading to cut background.

Test [2] deals with mitochondrial transcription (7S RNA) in HeLa cells. Kind of test: Quantitative real time-PCR assay of inhibition of mitochondrial transcription (7S RNA) in HeLa cells. As to conditions: Homo sapiens, 4 h compound incubation, according to Example 5, read-out: cellular qPCR assay. It is filed as cell-based. The essentials:
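HeLa cells were exposed to compound dilution series or DMSO for 4 h, then RNA was extracted, normalized and reverse-transcribed. TaqMan qRT-PCR measured short-lived 7S RNA, with POLRMT as nuclear-transcription readout and TBP as housekeeping gene. Biological triplicates were analyzed by ΔΔCt and reported as Rq % (2−ΔΔCt).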

Sequence of mitochondrial RNA polymerase (POLRMT) (Q8BKF1 42-1207): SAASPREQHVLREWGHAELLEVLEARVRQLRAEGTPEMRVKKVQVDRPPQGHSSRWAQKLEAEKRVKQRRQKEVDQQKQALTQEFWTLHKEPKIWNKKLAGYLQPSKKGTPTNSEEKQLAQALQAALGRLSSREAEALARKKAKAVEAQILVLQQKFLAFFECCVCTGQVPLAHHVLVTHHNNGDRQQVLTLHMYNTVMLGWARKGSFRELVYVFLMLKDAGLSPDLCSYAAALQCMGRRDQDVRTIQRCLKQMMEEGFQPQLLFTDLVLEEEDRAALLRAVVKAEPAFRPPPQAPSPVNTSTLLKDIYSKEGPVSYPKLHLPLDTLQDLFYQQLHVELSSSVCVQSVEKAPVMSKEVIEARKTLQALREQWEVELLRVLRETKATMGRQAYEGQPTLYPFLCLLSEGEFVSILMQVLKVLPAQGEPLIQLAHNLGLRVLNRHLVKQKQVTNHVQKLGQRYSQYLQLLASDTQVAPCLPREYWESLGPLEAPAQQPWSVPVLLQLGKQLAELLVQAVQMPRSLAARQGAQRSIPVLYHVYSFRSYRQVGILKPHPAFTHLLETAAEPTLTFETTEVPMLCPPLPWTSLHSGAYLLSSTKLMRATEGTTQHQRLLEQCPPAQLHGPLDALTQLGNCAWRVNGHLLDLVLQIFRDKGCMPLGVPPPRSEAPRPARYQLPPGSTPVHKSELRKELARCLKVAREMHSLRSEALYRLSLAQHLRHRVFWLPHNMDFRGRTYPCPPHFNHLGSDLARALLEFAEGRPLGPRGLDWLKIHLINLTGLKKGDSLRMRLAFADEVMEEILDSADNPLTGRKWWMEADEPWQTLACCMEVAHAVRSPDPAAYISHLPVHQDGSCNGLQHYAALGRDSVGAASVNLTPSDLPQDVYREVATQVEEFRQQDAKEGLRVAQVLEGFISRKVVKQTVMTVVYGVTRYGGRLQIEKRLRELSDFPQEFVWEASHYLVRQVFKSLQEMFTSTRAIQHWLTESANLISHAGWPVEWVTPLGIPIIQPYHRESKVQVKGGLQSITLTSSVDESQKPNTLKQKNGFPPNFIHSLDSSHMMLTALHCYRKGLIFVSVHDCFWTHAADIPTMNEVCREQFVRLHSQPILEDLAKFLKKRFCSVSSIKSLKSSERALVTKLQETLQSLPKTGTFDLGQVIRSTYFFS

For `C[C@@H](Oc1ccc2c(-c3ccccc3Cl)ccnc2c1)C(=O)N1CCCCC1` [Compound 53, (2R)-2-[[4-(2-chlorophenyl)-7-quinolyl]oxy]-1-(1-piperidyl)propan-1-one], the IC50 in test [1] was 100 to 1000 nM; in test [2], 10 to 50 nM.
The matching figures for `C[C@@H](Oc1ccc2c(-c3ccc(F)cc3Cl)ccnc2c1)C(=O)N1CCNCC1` [Compound 55, (R)-2-((4-(2-chloro-4-fluorophenyl)quinolin-7 yl)oxy)-1-(piperazin-1 yl)propan-1-one 2×TFA salt]: 100 to 1000 nM and 50 to 500 nM.
Taken in the same sequence, the figures for `C[C@@H](Oc1ccc2c(-c3ccc(F)cc3Cl)cc(Cl)nc2c1)C(=O)N1CCC[C@H](CC(=O)O)C1` [Compound 56, 2-[(3R)-1-[(2R)-2-[[2-chloro-4-(2-chloro-4-fluoro-phenyl)-7-quinolyl]oxy]propanoyl]-3-piperidyl]acetic acid] were 100 to 1000 nM and 50 to 500 nM.
As for `Cc1cc(F)ccc1-c1cc(Cl)nc2cc(O[C@H](C)C(=O)N3CCC[C@H](CC(=O)O)C3)ccc12` [Compound 57, 2-[(3R)-1-[(2R)-2-[[2-chloro-4-(4-fluoro-2-methyl-phenyl)-7-quinolyl]oxy]propanoyl]-3-piperidyl]acetic acid], the IC50 is 100 to 1000 nM in test [1] and 50 to 500 nM in test [2].
As to `Cc1cc(-c2ccc(F)cc2Cl)c2ccc(O[C@H](C)C(=O)N3CCC[C@H](C(=O)O)C3)cc2n1` [Compound 59, (3S)-1-[(2R)-2-[[4-(2-chloro-4-fluoro-phenyl)-2-methyl-7-quinolyl]oxy]propanoyl]piperidine-3-carboxylic acid], the IC50 in test [1] was in the range of 100 to 1000 nM; in test [2], 10 to 50 nM.
`C[C@@H](Oc1ccc2c(-c3ccc(F)cc3Cl)ccnc2c1)C(=O)Nc1ccc(C(=O)O)cc1` [Compound 60, 4-[[(2R)-2-[[4-(2-chloro-4-fluoro-phenyl)-7-quinolyl]oxy]propanoyl]amino]benzoic acid]: the values for the IC50 in test [1] and in test [2] were 100 to 1000 nM and 50 to 500 nM, respectively.
Turning to `CC(C)NC(=O)[C@@H](C)Oc1ccc2c(-c3ccc(F)cc3Cl)ccnc2c1` [Compound 61, (2R)-2-[[4-(2-chloro-4-fluoro-phenyl)-7-quinolyl]oxy]-N-isopropyl-propanamide], the IC50 in test [1] lay in the range of 100 to 1000 nM; in test [2] it was 50 to 500 nM.
`C[C@@H](Oc1ccc2c(-c3ccc(F)cc3Cl)ccnc2c1)C(=O)N1CCNC(=O)C1` [Compound 63, (R)-4-(2-((4-(2-chloro-4-fluorophenyl)quinolin-7-yl)oxy)propanoyl)piperazin-2-one]: the IC50 in test [1] was in the range of 100 to 1000 nM; in test [2], 50 to 500 nM.
Taken in the same sequence, the figures for `C[C@@H](Oc1ccc2c(-c3ccc(F)cc3Cl)cc(Cl)nc2c1)C(=O)N1CCC[C@H](C(=O)O)C1` [Compound 64, (3S)-1-[(2R)-2-[[2-chloro-4-(2-chloro-4-fluoro-phenyl)-7-quinolyl]oxy]propanoyl]piperidine-3-carboxylic acid] were 100 to 1000 nM and 50 to 500 nM.
Turning to `C[C@@H](Oc1ccc2c(-c3ccccc3)ccnc2c1)C(=O)N1CCC[C@H](C(=O)O)C1` [Compound 66, (3S)-1-[(2R)-2-[(4-phenyl-7-quinolyl)oxy]propanoyl]piperidine-3-carboxylic acid], the results for the IC50 in test [1] and in test [2] were 100 to 1000 nM and 10 to 50 nM, respectively.
Taken in the same sequence, the figures for `CNC(=O)C[C@H]1CCCN(C(=O)[C@@H](C)Oc2ccc3c(-c4ccccc4Cl)cc(Cl)nc3c2)C1` [Compound 68, 2-[(3R)-1-[(2R)-2-[[2-chloro-4-(2-chlorophenyl)-7-quinolyl]oxy]propanoyl]-3-piperidyl]-N-methyl-acetamide] were 100 to 1000 nM and 50 to 500 nM.
The matching figures for `Cc1cc(-c2ccccc2C)c2ccc(O[C@H](C)C(=O)N3CCC[C@H](CC(=O)O)C3)cc2n1` [Compound 69, 2-[(3R)-1-[(2R)-2-[[2-methyl-4-(o-tolyl)-7-quinolyl]oxy]propanoyl]-3-piperidyl]acetic acid]: 100 to 1000 nM and 10 to 50 nM.
